{"source": "patent US7091238B1", "about": "“Thienylhydrazon with digitalis-like properties (positive inotropic effects)” (University of Maryland, priority 1999, dated 2006)", "key": {"isolated rat heart": {"test_system": "isolated rat heart", "experiment": "Electrocardiogram of isolated heart (modified Langendorff perfusion)", "details": "isolated rat heart without pre-load; 10, 50, 100 μM", "protocol": "FIG. 4. Hearts of adult rats were quickly removed and placed in an aorta retrograde perfusion system (modified Langendorrff) for measurement of electrocardiogram (ECG).\na Recordings of electrocardiogram (ECG) of isolated rat heart are shown in FIG. 4 which compare control, LASSBio-294 treatment, 10 uM, 50 μM and 100 μM and post-treatment wash. […] FIG. 5 illustrates a test of change in isometric tension induced by LASSBio-294 in isolated hearts under preload. Concentration of LASSBio-294 in the bathing solution is 50 μM, which is half of the highest concentration tested in the ECG tests described in FIG. 4. Hearts were treated under a pre-load of 1 g; control was compared to LASSBio-294 and wash. […] This effect was lost in the wash out period. The pre-load tension test is considered to be an animal model of congestive heart disease. Comparing the effect of drugs with this test is predictive of therapeutic effect of treatment in human congestive heart disease. General Method\nHearts were quickly removed and placed in an aorta retrograde perfusion system for measurement of ECG. Increasing concentrations of LASSBio-294 were added to the bathing solution. The system equilibrated for 5 min. before measurement of isometric tension after each addition."}, "[1]": {"test_system": "Na^+/K^+-ATPase extracted from heart muscle or gastrocnemius muscle", "experiment": "Effect on Na+/K+-ATPase", "format": "biochemical", "details": "enzyme from rat heart or gastrocnemius muscle"}, "rat thoracic aorta": {"test_system": "rat thoracic aorta", "experiment": "Relaxation of noradrenaline-precontracted thoracic aortic rings", "description": "Aortic rings: Male wistar rats (300–350 g) were anaesthetized with ether and killed by cervical dislocation. The thoracic aorta was quickly removed, placed in physiological solution, cleaned of fat and connective tissue, and cut into 3-mm rings. In some experiments endothelium was mechanically removed by gently rubbing inverted rings on a cotton surface moistened with physiological solution. The rings were fixed in an organ bath chamber filled with physiological solution (composition (mM): NaCl 122, KCl 5, NaHCO3 15, glucose 11.5, MgCl2 1.25, CaCl2 1.25 and KH2PO4 1.25) aerated with O2/CO2, maintained at 37° C., and left to equilibrate for 60 min during which the physiological solution was changed twice. All experiments were carried out under an initial tension of 20 mN, and the developed active tension was measured isometrically using a Grass Transducer (FT03). Data were acquired and analyzed by Chart 3.4/s software (MacLab, USA). The contraction was induced by 1 μM Noradrenaline (NOR) and when it reached a plateau the relaxant drugs (or solvent—time-matched control) were added. The rings contracted with 1 μM NOR that relaxed 40–50% in response to 1 μM acetylcholine were considered with intact endothelium. Drugs: LASSBio-294 and ODQ were dissolved in 100% dimethyl sulphoxide (DMSO). Noradrenalin, 1-NAME, IBMX, methylene blue, acetylcholine and indomethacin were purchased from SIGMA (USA). All drugs but indomethacin were dissolved in water in the day of the experiment. Indomethacin was dissolved in 5% sodium carbonate. Statistics: Data are presented as mean ±sem. Statistical analysis was performed using the Primer software. Vasodilator responses are expressed in percentage of the maximal contraction induced by 1 μM NOR. Differences were considered significant at p<0.05 (Student's t test)."}, "[2]": {"experiment": "Plasma concentration kinetics", "format": "in vivo", "protocol": "The plasma concentration of the drug reached a maximum at that time and afterwards tapered off to control levels within 2 hours."}, "[3]": {"experiment": "Blood biochemistry analysis in treated mice", "format": "in vivo", "protocol": "b. Rats were weighed before and after treatment with LASSBio 204. […] Six rats were examined in each group, measurements were made after 1–15 days of treatment. […] Mice were injected with LASSBio-294 and their blood examined for cell changes. Experimental groups received 2 or 10 mg/kg of drug. […] Table 4 lists blood chemistry analysis of mice treated with LASSBio-294. Experimental groups received 2 or 10 mg/kg of drug. Controls were saline and solvent. […] The low values of glucose found could be due to an artifact of the technique, glucose being a byproduct of hemolysis. […] General Method"}}, "note": "“Also recorded” adds a separate entry of the source."}
{"smiles": "O=C(NN=Cc1cccs1)c1ccc2c(c1)OCO2", "note": "[LASSBio-294, 3,4-methylenedioxybenzoyl-2-thienylhydrazone]", "values": [{"measurement": "effect on ECG", "setting": "isolated rat heart", "result": "No treatment had any effect on ECG; also recorded: no change"}, {"measurement": "effect on Na^+/K^+-ATPase", "setting": "[1]", "result": "did not affect"}, {"measurement": "vasodilator activity (conclusion)", "setting": "rat thoracic aorta", "result": "has vasodilator activity"}, {"measurement": "relaxation of aortic rings with intact endothelium", "setting": "rat thoracic aorta; 1 μM noradrenaline precontraction, 100 μM", "result": "relaxed noradrenaline-precontracted aortic rings; also recorded: relaxed intact aortic rings in a concentration-dependent manner"}, {"measurement": "relaxation after addition of methylene blue", "setting": "rat thoracic aorta; 30 μM methylene blue added after compound 100 μM", "result": "fully reversed"}, {"measurement": "relaxation after pre-treatment with methylene blue", "setting": "rat thoracic aorta; 30 μM methylene blue added before compound", "result": "not able to induce relaxation; also recorded: prevented; also recorded: abolishes"}, {"measurement": "relaxation after 1-NAME treatment", "setting": "rat thoracic aorta; 1-NAME 100 μM during 30 min", "result": "no difference in the relaxation"}, {"measurement": "vasorelaxation in presence of ODQ", "setting": "rat thoracic aorta; ODQ 10 μM, compound 100 μM, preliminary assays", "result": "prevented"}, {"measurement": "relaxation in endothelium-denuded aorta", "setting": "rat thoracic aorta; endothelium removed", "result": "abolished"}, {"measurement": "relaxation after 1-NAME plus indomethacin", "setting": "rat thoracic aorta; inhibition of both NOS and cycloxigenase pathways", "result": "same level of relaxation observed in the presence of only 1-NAME; also recorded: the same as observed in the presence of 1-NAME alone"}, {"measurement": "relaxation compared with acetylcholine and IBMX", "setting": "rat thoracic aorta; intact rings, 1 μM noradrenaline", "result": "more slowly; also recorded: less pronounced"}, {"measurement": "retention time (RT); time of maximum plasma concentration", "setting": "[2]", "result": 14.59, "unit": "min"}, {"measurement": "time for plasma concentration to taper off to control levels", "setting": "[2]", "result": "≤ 2", "unit": "h"}, {"measurement": "hemoglobin, erythrocytes and blood biochemistry", "setting": "[3]; male and female mice, long-term treatment", "result": "values similar to control"}, {"measurement": "blood chemistry values", "setting": "[3]; mice, 2 or 10 mg/kg, controls saline and solvent", "result": "no significant change in blood chemistry values"}]}
